Assay: Inhibition of the release of Alpha-amylase from rat pancreatic acinar cells.

SMILES	IC50 [nM]
CCN(CC)CCCCCOC(=O)C(C)(c1ccccc1)C1CCCCC1 (centres undefined)	2700
CN(C)CCCOC(=O)C(C)(c1ccccc1)C1CCCCC1 (centres undefined)	10
CCN(CC)CCCOC(=O)C(C)(c1ccccc1)C1CCCCC1 (centres undefined)	21
CCN(CC)CCOC(=O)C(C)(c1ccccc1)C1CCCCC1 (centres undefined)	52

Reference: BindingDB's records for doi:10.1021/jm00085a017 (Institute of Research, 1992)
